This is an account of results in ChEMBL document CHEMBL6103607, “Novel Heterocyclic Piperazine Amide Derivatives as Alpha-synuclein PET Ligands for Diagnosis of Parkinson's Disease” (ACS Med Chem Lett, 2025).

The assay deals with Amyloid-beta precursor protein (Homo sapiens, UniProt P05067). The experiment in a line: Displacement of [3H]-105 from amyloid-beta (unknown origin) in human brain homogenate assessed as inhibition constant incubated for 90 mins by radioligand binding assay. The assay is classed as tissue-based.
Chain of Amyloid-beta precursor protein (P05067 whole entry): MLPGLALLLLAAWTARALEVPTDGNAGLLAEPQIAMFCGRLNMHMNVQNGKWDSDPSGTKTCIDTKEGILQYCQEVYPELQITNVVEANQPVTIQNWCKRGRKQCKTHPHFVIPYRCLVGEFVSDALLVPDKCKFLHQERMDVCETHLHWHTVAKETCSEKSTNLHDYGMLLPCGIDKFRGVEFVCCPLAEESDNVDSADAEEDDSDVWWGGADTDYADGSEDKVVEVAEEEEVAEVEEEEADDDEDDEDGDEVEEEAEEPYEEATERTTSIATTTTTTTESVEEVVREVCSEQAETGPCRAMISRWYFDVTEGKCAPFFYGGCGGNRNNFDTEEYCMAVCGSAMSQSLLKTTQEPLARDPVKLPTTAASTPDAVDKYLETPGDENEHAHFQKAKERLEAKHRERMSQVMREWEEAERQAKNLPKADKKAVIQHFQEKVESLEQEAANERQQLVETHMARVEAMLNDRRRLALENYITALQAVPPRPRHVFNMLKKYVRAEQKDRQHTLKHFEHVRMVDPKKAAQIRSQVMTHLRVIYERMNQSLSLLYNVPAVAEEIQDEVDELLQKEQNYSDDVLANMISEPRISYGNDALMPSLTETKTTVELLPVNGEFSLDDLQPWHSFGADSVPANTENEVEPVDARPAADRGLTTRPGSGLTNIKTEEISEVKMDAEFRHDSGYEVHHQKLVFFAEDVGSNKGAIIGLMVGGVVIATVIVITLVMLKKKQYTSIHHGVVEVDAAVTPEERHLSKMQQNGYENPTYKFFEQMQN
The term Ki denotes a measure of affinity in units of concentration, obtained from inhibition or displacement. As to `C[C@H]1CN(c2cc([N+](=O)[O-])ccn2)CCN1c1ncc(NC(=O)c2ccc(N3CC(F)(F)C3)nc2)cn1`, the Ki turned out to be 12 µM.

Regarding `C[C@H]1CN(c2ccc(F)cn2)CCN1c1ncc(NC(=O)c2ccc(N3CC[C@@H](F)C3)nc2)cn1`, the inhibition constant Ki was 12 µM.

Turning to `C[C@H]1CN(c2ccc(F)cn2)CCN1c1ncc(NC(=O)c2ccc(N3CCC3)nc2)cn1`, the Ki came to 12 µM.

On to `Cc1cocc1-c1ccc(C(=O)Nc2cnc(N3CCN(c4ccccn4)C[C@@H]3C)nc2)cn1`, for which the Ki stood at 10.8 µM.

As for `C[C@H]1CN(c2ccc(F)cn2)CCN1c1ncc(NC(=O)c2ccc(N3CC(F)C3)nc2)cn1`, the Ki turned out to be 12 µM.

As to `Cc1ccc(N2C[C@@H](C)N(c3ncc(NC(=O)c4ccc(-c5cncc(F)c5)nc4)cn3)[C@@H](C)C2)nc1`, the Ki stood at 12 µM.

Turning to `C[C@H]1CN(c2ccccn2)CCN1c1ncc(NC(=O)c2ccc(-n3cccn3)nc2)cn1`, the Ki stood at 10.8 µM.

As for `COC[C@H]1CN(c2ccccn2)CCN1c1ncc(NC(=O)c2ccc(-n3cccn3)nc2)cn1`, the Ki was 12 µM.
